Assay results: US20090069565A1, “NEW INDOLE DERIVATIVES AS FACTOR XA INHIBITORS” (priority 2001, published 2009)

biological target: human factor Xa (Homo sapiens, UniProt P00742); assay: Factor Xa assay (chromogenic, substrate S-2765); type: biochemical; conditions: not given;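 note: purified enzyme preincubated with inhibitor for 10 min before substrate addition, final reaction volume 100 µl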
Sequence (P00742 235-488 limits assumed): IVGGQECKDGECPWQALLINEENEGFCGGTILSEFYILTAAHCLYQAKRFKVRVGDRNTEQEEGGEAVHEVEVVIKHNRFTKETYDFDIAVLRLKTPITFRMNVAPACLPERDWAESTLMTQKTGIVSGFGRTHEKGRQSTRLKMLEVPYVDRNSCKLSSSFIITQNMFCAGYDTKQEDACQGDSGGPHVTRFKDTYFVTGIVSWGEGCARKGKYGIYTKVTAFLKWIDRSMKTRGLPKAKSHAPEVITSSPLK
Sequence (P00742 41-179 partner limits assumed): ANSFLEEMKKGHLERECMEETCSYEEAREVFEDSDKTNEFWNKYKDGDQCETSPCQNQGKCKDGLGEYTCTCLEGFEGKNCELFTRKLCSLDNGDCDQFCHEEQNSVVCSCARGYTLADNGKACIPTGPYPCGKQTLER

First: CC(C)N1CCC(NC(=O)c2cc3c(Cl)cccc3n2Cc2cc(-c3ccc(Cl)s3)on2)CC1 [Example 182, 4-Chloro-1-[5-(5-chloro-thiophen-2-yl)-isoxazol-3-ylmethyl]-1H-indole-2-carboxylic acid (1-isopropyl-piperidin-4-yl)-amide]
Second: O=C(c1cc2ccccc2n1Cc1cc(-c2ccc(Cl)s2)on1)N(c1ccncc1)C1CCN(c2ccncc2)CC1 [Example 204, 1-[5-(5-Chloro-thiophen-2-yl)-isoxazol-3-ylmethyl]-1H-indole-2-carboxylic acid pyridin-4-yl-(3,4,5,6-tetrahydro-2H-[1,4′]bipyridinyl-4-yl)-amide]
The Ki of the first is 15-fold lower: 5 nM for the first, 74 nM for the second.

With `O=C(c1cc2cc([N+](=O)[O-])ccc2n1Cc1cc(-c2ccc(Cl)s2)on1)N(c1ccncc1)C1CCN(c2ccncc2)CC1` [Example 205, 1-[5-(5-Chloro-thiophen-2-yl)-isoxazol-3-ylmethyl]-5-nitro-1H-indole-2-carboxylic acid pyridin-4-yl-(3,4,5,6-tetrahydro-2H-[1,4′]bipyridinyl-4-yl)-amide] the Ki was 34 nM.

same assay, conditions: inhibition constant for factor Xa; purified enzyme 0.5 nM, substrate S-2765 140 μM, 25° C., pH 7.8; Ki=IC50/{1+(substrate concentration/Km)}; read-out: Ki(FXa)

Going from `CCC(CC)N1CCC(NC(=O)c2cc3ccccc3n2Cc2cc(-c3ccc(Cl)s3)on2)CC1` [Example 186, 1-[5-(5-Chloro-thiophen-2-yl)-isoxazol-3-ylmethyl]-1H-indole-2-carboxylic acid [1-(1-ethyl-propyl)-piperidin-4-yl]-amide] to `CCCN1CCC(NC(=O)c2cc3ccccc3n2Cc2cc(-c3ccc(Cl)s3)on2)CC1` [Example 200], the Ki falls from 220 nM to 64 nM (3.4-fold).

First: CN1CCC(NC(=O)c2cc3ccccc3n2Cc2cc(-c3ccc(Cl)s3)on2)CC1 [Example 187, 1-[5-(5-Chloro-thiophen-2-yl)-isoxazol-3-ylmethyl]-1H-indole-2-carboxylic acid (1-methyl-piperidin-4-yl)-amide]
Second: CC(=O)N1CCC(NC(=O)c2cc3ccccc3n2Cc2cc(-c3ccc(Cl)s3)on2)CC1 [Example 192, 1-[5-(5-Chloro-thiophen-2-yl)-isoxazol-3-ylmethyl]-1H-indole-2-carboxylic acid (1-acetyl-piperidin-4-yl)-amide]
The Ki of the first is 19-fold lower: 40 nM for the first, 763 nM for the second. The first binds more tightly here.

Going from `NC(=O)N1CCC(NC(=O)c2cc3ccccc3n2Cc2cc(-c3ccc(Cl)s3)on2)CC1` [Example 190, 1-[5-(5-Chloro-thiophen-2-yl)-isoxazol-3-ylmethyl]-1H-indole-2-carboxylic acid (1-carbamoyl-piperidin-4-yl)-amide] to `CC(C)CN1CCC(NC(=O)c2cc3ccccc3n2Cc2cc(-c3ccc(Cl)s3)on2)CC1` [Example 199, 1-[5-(5-Chloro-thiophen-2-yl)-isoxazol-3-ylmethyl]-1H-indole-2-carboxylic acid (1-isobutyl-piperidin-4-yl)-amide], the Ki falls from 1080 nM to 142 nM (7.6-fold). The second binds more tightly here.

`O=C(NC1CCN(c2ccncn2)CC1)c1cc2ccccc2n1Cc1cc(-c2ccc(Cl)s2)on1` [Example 194, 1-[5-(5-Chloro-thiophen-2-yl)-isoxazol-3-ylmethyl]-1H-indole-2-carboxylic acid (1-pyrimidin-4-yl-piperidin-4-yl)-amide] showed a Ki of 95 nM.

same assay, conditions: read-out: Ki(FXa)

Compared with `CN1CCN(NC(=O)c2cc3ccccc3n2Cc2cc(-c3ccc(Cl)s3)on2)CC1` [Example 183, 1-[5-(5-Chloro-thiophen-2-yl)-isoxazol-3-ylmethyl]-1H-indole-2-carboxylic acid (4-methyl-piperazin-1-yl)-amide], `CCN1CCN(NC(=O)c2cc3ccccc3n2Cc2cc(-c3ccc(Cl)s3)on2)CC1` [Example 203, 1-[5-(5-Chloro-thiophen-2-yl)-isoxazol-3-ylmethyl]-1H-indole-2-carboxylic acid (4-ethyl-piperazin-1-yl)-amide] is 2.7-fold lower in Ki: 76 nM for the first, 28 nM for the second.

Going from `CCOC(=O)CN(C(=O)c1cc2cccc(C)c2n1Cc1cc(-c2ccc(Cl)s2)on1)C1CCN(C(C)C)CC1` [Example 184, [{1-[5-(5-Chloro-thiophen-2-yl)-isoxazol-3-ylmethyl]-7-methyl-1H-Indole-2-carbonyl}-(1-isopropyl-piperidin-4-yl)-amino]-acetic acid ethyl ester] to `Cc1cccc2cc(C(=O)N(CC(=O)O)C3CCN(C(C)C)CC3)n(Cc3cc(-c4ccc(Cl)s4)on3)c12` [Example 185, [{1-[5-(5-Chloro-thiophen-2-yl)-isoxazol-3-ylmethyl]-7-methyl-1H-indole-2-carbonyl}-(1-isopropyl-piperidin-4-yl)-amino]-acetic acid], the Ki falls from 13 nM to 5 nM (2.6-fold).

Compared with `O=C(NC1CCN(CC(F)(F)F)CC1)c1cc2ccccc2n1Cc1cc(-c2ccc(Cl)s2)on1` [Example 188, 1-[5-(5-Chloro-thiophen-2-yl)-isoxazol-3-ylmethyl]-1H-indole-2-carboxylic acid [1-(2,2,2-trifluoro-ethyl)-piperidin-4-yl]-amide], `O=CN1CCC(NC(=O)c2cc3ccccc3n2Cc2cc(-c3ccc(Cl)s3)on2)CC1` [Example 189, 1-[5-(5-Chloro-thiophen-2-yl)-isoxazol-3-ylmethyl]-1H-indole-2-carboxylic acid (1-formyl-piperidin-4-yl)-amide] is 2-fold higher in Ki: 1030 nM for the first, 2020 nM for the second. The first binds more tightly here.

Compared with `CS(=O)(=O)N1CCC(NC(=O)c2cc3ccccc3n2Cc2cc(-c3ccc(Cl)s3)on2)CC1` [Example 191, 1-[5-(5-Chloro-thiophen-2-yl)-isoxazol-3-ylmethyl]-1H-indole-2-carboxylic acid (1-methanesulfonyl-piperidin-4-yl)-amide], `COC(=O)N1CCC(NC(=O)c2cc3ccccc3n2Cc2cc(-c3ccc(Cl)s3)on2)CC1` [Example 201, 4-({1-[5-(5-Chloro-thiophen-2-yl)-isoxazol-3-ylmethyl]-1H-indole-2-carbonyl}-amino)-piperidine-1-carboxylic acid methyl ester] is 13-fold higher in Ki: 136 nM for the first, 1780 nM for the second.

First: O=C(NC1CCN(c2ccnc(Cl)n2)CC1)c1cc2ccccc2n1Cc1cc(-c2ccc(Cl)s2)on1 [Example 193, 1-[5-(5-Chloro-thiophen-2-yl)-isoxazol-3-ylmethyl]-1H-indole-2-carboxylic acid [1-(2-chloro-pyrimidin-4-yl)-piperidin-4-yl]-amide]
Second: N#Cc1c(C(=O)NC2CCN(c3ccncc3)CC2)n(Cc2cc(-c3ccc(Cl)s3)on2)c2ccccc12 [Example 206, 1-[5-(5-Chloro-thiophen-2-yl)-isoxazol-3-ylmethyl]-3-cyano-1H-indole-2-carboxylic acid (3,4,5,6-tetrahydro-2H-[1,4′]bipyridinyl-4-yl)-amide]
The Ki of the first is 17-fold higher: 199 nM for the first, 12 nM for the second. The second binds more tightly here.

Compared with `CC(C)N1CCN(NC(=O)c2cc3ccccc3n2Cc2cc(-c3ccc(Cl)s3)on2)CC1` [Example 202, 1-[5-(5-Chloro-thiophen-2-yl)-isoxazol-3-ylmethyl]-1H-indole-2-carboxylic acid (4-isopropyl-piperazin-1-yl)-amide], `CC(C)N1CCC(NC(=O)c2cc3ccccc3n2Cc2cc3ccc(Cl)cc3c(Cl)n2)CC1` [Example 210, 1-(1,7-Dichloro-isoquinolin-3-ylmethyl)-1H-indole-2-carboxylic acid (1-isopropyl-piperidin-4-yl)-amide] is 4-fold higher in Ki: 20 nM for the first, 79 nM for the second. The first binds more tightly here.

`COc1ccc(C#N)c2c1c(C#N)c(C(=O)NC1CCN(C(C)C)CC1)n2Cc1cc(-c2ccc(Cl)s2)on1` [Example 208, 1-[5-(5-Chloro-thiophen-2-yl)-isoxazol-3-ylmethyl]-3,7-dicyano-4-methoxy-1H-indole-2-carboxylic acid (1-isopropyl-piperidin-4-yl)-amide] showed a Ki of 1 nM.
